{"source": "patent US5614504A", "about": "“Method of making inosine monophosphate derivatives and immunopotentiating uses thereof” (The University of South Florida, priority 1995, dated 1997)", "key": {"CD8+ lymphocytes": {"tested_on": "CD8+ lymphocytes", "assay": "PHA response of CD8+ enriched human lymphocytes", "format": "cell-based", "conditions": "MIMP 1-200 μg/ml, 3 donors, p <0.01", "description": "Human CD4+ and CD8+ lymphocyte subsets were obtained from normal controls using commercial panning techniques (Applied Immune Sciences, Santa Clara, Calif.).\nHuman peripheral blood lymphocytes are on average approximately 80% T lymphocytes and 20% B lymphocytes and of the T lymphocytes, 2/3 are of the CD4+ helper/inducer phenotype and 1/3 are the CD8+ suppressor/cytotoxic phenotype. Enrichment of CD4+ T cells or CD8+ T cells can be achieved through reduction of the other phenotype (>98%) removal using adherence to monoclonal antibody-coated flasks (panning)."}, "IL-2": {"tested_on": "IL-2", "assay": "PHA-induced IL-2 production", "format": "cell-based", "conditions": "preliminary data"}, "[1]": {"tested_on": "spleen plaque antibody forming cells (PFC)", "assay": "In vivo stimulation of PFC response to SRBC", "design": "species or system mice", "description": "Five days later, suspensions of spleen cells were prepared and their viability was determined by trypan blue exclusion test. Cells were suspended at 3×10^6 /ml. 0.2 ml of spleen cell suspension was mixed with 0.8 ml of 0.7% agarose and 0.2 ml of freshly washed SRBC (at 6×10^5 /ml). The mixture was immediately poured into the plate and allowed to solidify. After 60 minutes of incubation at 37° C. in a humid atmosphere of 5% CO2 in the air, the plate was flooded with 1 ml of guinea-pig complement diluted 1:5 with Hank's balanced saline. Hemolytic plaques were counted with an inverted scope using 4× magnification.\nSpleen plaque antibody forming cells (PFC) were measured at the end of the five days."}, "[2]": {"tested_on": "human peripheral blood lymphocytes (HPBL)", "assay": "PHA responses of HPBL from aged and HIV-infected individuals", "format": "cell-based", "conditions": "100 μg/ml", "description": "The human donors included 22 healthy controls (ages ranging from 20-50), 24 aged individuals (mean age 84 years, ±1), 8 HIV-infected pre-AIDS patients (CDC Class II-mean CD4 count 544), and 8 AIDS patients (mean CD4 count 40).\nFIG. 7 depicts the PHA responses of these aged and HIV-infected individuals and the effect of stimulation with 100 μg/ml of MIMP compared to normal controls (C)."}, "[3]": {"tested_on": "human peripheral blood lymphocytes (HPBL)", "assay": "Response of normal HPBL to PHA (tritiated thymidine incorporation)", "format": "cell-based", "conditions": "0.1-100 μg/ml; FIG. 1", "description": "In vitro: Both human peripheral blood lymphocytes (HPBL) and mouse spleen lymphocytes (MSL) were employed. […] For HPBL transformation, PHA and PWM were used at 0.5 μg/ml. For MSL transformation, Con A was used at 0.5 μg/ml, phytohemagglutinin (PHA, Murex Diagnostics, Atlanta, Ga.) at 0.5 μg/ml and lipopolysaccharide endotoxin (LPS, Sigma, St. Louis, Mo.) at 10 μg/ml.\nThey were cultured in microwell plates at 1.5×10^6 cells/ml of minimal essential media (MEM, Gibco Labs, Grand Island, N.Y.) with 5% fetal calf serum (FCS, Hyclone Labs, Logan, Utah) and tested for their proliferative response to mitogens as measured by incorporation of (^3 H) tritiated thymidine (New England Nuclear, Wilmington Del., […]; 2.5 μCi/ml) during a terminal pulse followed by liquid scintillation spectrometry."}, "L. monocytogenes EGD": {"tested_on": "L. monocytogenes EGD", "assay": "Listeria infection mortality", "format": "in vivo, BALB/c mice", "conditions": "for Mortality: Dead/Total: 1 dose, Day -5, day 4"}, "in vitro": {"assay": "in vitro", "format": "in vitro ADME, Crotalus atrox", "conditions": "rattlesnake, pH 7.3; 0.02 units 5'-nucleotidase, 37° C., 10 minutes; four experiments; read-out: Hydrolysis (%)", "description": "(§1) Nucleotide samples (40-60 nmoles) were incubated at 37° C. for 10 minutes with 0.02 units 5'-nucleotidase in a total volume of 100 μl containing […] HEPES, pH 7.3 and […] MgCl2. […] Phosphate was determined by the absorbance of 820 nm. Blanks consisting of nucleotide but no enzyme were tested in parallel to correct for non-enzymatic hydrolysis."}, "anti-HBs": {"tested_on": "anti-HBs", "assay": "Anti-HBs production in normal DBA/2 mice (EIA)", "format": "in vivo", "conditions": "for anti-HBs, Day 14 / anti-HBs, Day 21: 50 mg/kg", "description": "Different strains of mice, coded by Pre-S2 zone S-gene HBV for their immune responses for proteins place them in the following haplotype order (Benaceraf and McDevitt, 1972): H-2^b >H-2^d >H-2^s >H-2^k>H-2^f. […] Therefore, male DBA/2 mice weighing 16-18 grams were obtained from the Animal Laboratory, Academy of Medical Science, Russia, and were used in the examples set forth herein. This line of mice was chosen as they are poor responders to hepatitis B vaccine.\nSerum specimens from immunized mice were tested for the presence of anti-HBs in an enzyme immunoassay (EIA) using the diagnostic kits of Roche Diagnostica as per the manufacturer's instructions. The anti-HBs EIA kit (Roche), has a sensitivity of <10 IU/1.\nAntibody concentration was determined with the help of calibration curves designed on the basis of the results of anti-HBs detection in standard serum panel (Roche Diagnostica) with the concentrations, as follows: 10 IU/l; 50 IU/l; 100 IU/l and 150 IU/l. The results of the two experiments were used for the calculation of mean values.\nHBsAg was administered at a dose of […] in 0.2 ml PBS (pH 7.4) twice with an interval of two weeks between injections.\nA protected-IMP, MIMP, was introduced both orally or intraperitoneally at a dose of 50 mg/kg.\nThe results of anti-HBs detection in the control group of mice treated with HBsAg alone and in the groups treated with the combination of HBsAg and MIMP, as prepared in the examples, are presented in Table 9. The various vaccination schedules are provided in the following list."}, "[4]": {"tested_on": "Salm. typhimurium strain 415", "assay": "Salmonella infection mortality", "format": "in vivo, BALB/c mice", "conditions": "the various treatments of MIMP; p<0.01; control about 2.5 days"}, "[5]": {"assay": "Further set: percent hydrolysis by 5'-nucleotidase (Table 1B)", "format": "in vitro ADME, Crotalus atrox", "conditions": "rattlesnake, 20 minutes incubation, 200 μl", "description": "as §1\nThe protocol was as hereinabove except that the first incubation was for 20 minutes in a total volume of 200 μl, 0.1 mM HEPES and 10 mM MgCl2. The percent hydrolysis of nucleotides was performed in duplicate for each assay."}, "[6]": {"conditions": "scheme 3: HBsAg + MIMP i.p. simultaneously then MIMP per os, p < 0.01"}}, "note": "Read-outs that look alike come from different tables or passages of the source.", "data": [{"smiles": "COP(=O)(O)OC[C@H]1O[C@@H](n2cnc3c(=O)[nH]cnc32)[C@H](O)[C@@H]1O", "note": "[Me-IMP, Methyl-5'-inosine-monophosphate]", "values": [{"measurement": "PHA response of CD8+ lymphocytes", "setting": "CD8+ lymphocytes", "result": "significantly augmented"}, {"measurement": "effect on PHA-induced IL-2", "setting": "IL-2", "result": "only a small effect"}, {"measurement": "effect on PFC response", "setting": "[1]; 50 mg/kg of body weight ip with SRBC, PFC five days later", "result": "significantly stimulated"}, {"measurement": "dose of optimal stimulation of PFC response", "setting": "[1]; intraperitoneal", "result": "50 mg/kg of body weight"}, {"measurement": "PFC activity at lower doses", "setting": "[1]; intraperitoneal, below 50 mg/kg", "result": "active at lower doses"}, {"measurement": "peak dose for stimulation of PFC response", "setting": "[1]; oral, with SRBC antigen and daily for five days", "result": "50 mg/kg of body weight"}, {"measurement": "response of lymphocytes to MIMP in presence of PHA", "setting": "[2]; 8 AIDS patients", "result": "no response"}, {"measurement": "response of lymphocytes to MIMP in presence of PHA", "setting": "[2]; 8 HIV-infected (ARC) individuals", "result": "significant response"}, {"measurement": "response of lymphocytes to MIMP in presence of PHA", "setting": "[2]; 9 aged patients (Ag-)", "result": "markedly depressed responses to PHA and also to MIMP"}, {"measurement": "response of lymphocytes to MIMP in presence of PHA", "setting": "[2]; 15 aged patients (Ag+)", "result": "normal PHA responses and responses to MIMP"}, {"measurement": "response of lymphocytes to MIMP in presence of PHA", "setting": "[2]; 22 controls", "result": "normal PHA and MIMP responses"}, {"measurement": "relative activity on HPBL response to PHA", "setting": "[3]", "result": "more active"}, {"measurement": "MST and survivors", "setting": "L. monocytogenes EGD; 0.1 to 10 mg/kg, combined i.p. and p.o. from five days prior to challenge", "result": "increased MST and survivors"}, {"measurement": "mean survival time (MST) and absolute number of survivors", "setting": "L. monocytogenes EGD; by mouth and at 1 and 10 mg/kg by i.p. injection, five days prior to challenge", "result": "increased mean survival time (MST) and the absolute number of survivors"}, {"measurement": "Mortality: Dead/Total", "setting": "L. monocytogenes EGD; scheme N1 2: MIMP 1.0 per os", "result": "2/3"}, {"measurement": "Mortality: Dead/Total", "setting": "L. monocytogenes EGD; scheme N1 3: MIMP 10.0 per os", "result": "1/8"}, {"measurement": "metabolised at 10 min", "setting": "in vitro", "result": 2.1, "unit": "%"}, {"measurement": "anti-HBs, Day 14", "setting": "anti-HBs; scheme 2: HBsAg + MIMP per os 30 minutes prior to vaccine", "result": "< 10", "unit": "IU/1"}, {"measurement": "anti-HBs, Day 21", "setting": "anti-HBs; scheme 2: HBsAg + MIMP per os 30 minutes prior to vaccine, 0.01 < p < 0.05", "result": 370, "unit": "IU/1"}, {"measurement": "anti-HBs, Day 14", "setting": "anti-HBs; [6]", "result": 100, "unit": "IU/1"}, {"measurement": "anti-HBs, Day 21", "setting": "anti-HBs; [6]", "result": 610, "unit": "IU/1"}, {"measurement": "anti-HBs, Day 21", "setting": "anti-HBs; scheme 4: HBsAg + MIMP i.p. simultaneously, 0.01 < p < 0.05", "result": 420, "unit": "IU/1"}, {"measurement": "anti-HBs, Day 14", "setting": "anti-HBs; scheme 4: HBsAg + MIMP i.p. simultaneously, p < 0.01", "result": 100, "unit": "IU/1"}, {"measurement": "level of antibodies to HBsAg", "setting": "anti-HBs; single intraperitoneal or single oral dose of 50 mg/kg", "result": "significant increase"}, {"measurement": "MST", "setting": "[4]", "result": "about four"}, {"measurement": "metabolised at 20 min", "setting": "[5]; read-out: Percent hydrolysis by 5'-nucleotidase, Assay 1", "result": 1.5, "unit": "%"}, {"measurement": "metabolised at 20 min", "setting": "[5]; read-out: Percent hydrolysis by 5'-nucleotidase, Assay 2", "result": 2.2, "unit": "%"}, {"measurement": "metabolised at 20 min", "setting": "[5]; read-out: Percent hydrolysis by 5'-nucleotidase, Assay 3", "result": 2.6, "unit": "%"}]}]}
